Test results as given in ChEMBL document CHEMBL4622931, “Potent dual EGFR/Her4 tyrosine kinase inhibitors containing novel (1,2-dithiolan-4-yl)acetamides” (Bioorg Med Chem Lett, 2020).
Activity calls are given as the source filed them. The rule behind the calls is not given here.

What was measured:
[1] = target: T1, Epidermal growth factor receptor (Homo sapiens, UniProt P00533); test: Inhibition of wild type EGFR (unknown origin) in presence of radiolabelled gammaATP by radioisotope filter binding assay
T1 sequence (P00533 whole entry): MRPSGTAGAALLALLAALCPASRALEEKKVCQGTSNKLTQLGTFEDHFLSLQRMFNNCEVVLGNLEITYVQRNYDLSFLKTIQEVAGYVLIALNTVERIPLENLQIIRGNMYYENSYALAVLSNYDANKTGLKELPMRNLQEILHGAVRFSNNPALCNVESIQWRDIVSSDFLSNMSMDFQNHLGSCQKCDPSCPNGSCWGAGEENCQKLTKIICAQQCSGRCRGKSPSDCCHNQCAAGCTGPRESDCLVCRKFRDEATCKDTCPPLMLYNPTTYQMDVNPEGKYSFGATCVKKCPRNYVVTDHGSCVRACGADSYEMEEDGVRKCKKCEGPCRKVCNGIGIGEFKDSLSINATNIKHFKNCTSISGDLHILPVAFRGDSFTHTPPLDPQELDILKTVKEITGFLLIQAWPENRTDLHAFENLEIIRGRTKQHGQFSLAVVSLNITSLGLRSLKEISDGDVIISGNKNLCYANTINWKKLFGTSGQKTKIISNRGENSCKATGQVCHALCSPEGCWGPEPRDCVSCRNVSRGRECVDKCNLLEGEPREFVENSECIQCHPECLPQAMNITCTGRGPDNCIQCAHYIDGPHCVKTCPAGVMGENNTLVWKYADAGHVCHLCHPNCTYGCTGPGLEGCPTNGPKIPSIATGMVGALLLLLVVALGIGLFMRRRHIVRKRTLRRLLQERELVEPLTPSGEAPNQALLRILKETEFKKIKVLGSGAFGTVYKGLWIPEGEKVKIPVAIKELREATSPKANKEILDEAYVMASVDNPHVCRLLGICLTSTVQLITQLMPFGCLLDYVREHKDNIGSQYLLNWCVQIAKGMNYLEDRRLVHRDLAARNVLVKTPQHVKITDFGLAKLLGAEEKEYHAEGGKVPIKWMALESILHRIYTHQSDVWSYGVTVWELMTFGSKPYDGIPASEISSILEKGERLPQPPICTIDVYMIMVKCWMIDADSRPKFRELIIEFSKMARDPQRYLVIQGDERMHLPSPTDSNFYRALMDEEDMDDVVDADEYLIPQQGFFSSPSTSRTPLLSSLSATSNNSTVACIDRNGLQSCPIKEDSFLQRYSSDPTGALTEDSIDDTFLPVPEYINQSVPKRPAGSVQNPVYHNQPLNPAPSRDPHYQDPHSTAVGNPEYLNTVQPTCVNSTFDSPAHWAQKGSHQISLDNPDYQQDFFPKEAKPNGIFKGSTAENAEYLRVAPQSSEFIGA

[2] = target: T2, Receptor tyrosine-protein kinase erbB-2 (Homo sapiens, UniProt P04626); test: Inhibition of HER2 (unknown origin) in presence of radiolabelled gammaATP by radioisotope filter binding assay
T2 sequence (P04626 whole entry): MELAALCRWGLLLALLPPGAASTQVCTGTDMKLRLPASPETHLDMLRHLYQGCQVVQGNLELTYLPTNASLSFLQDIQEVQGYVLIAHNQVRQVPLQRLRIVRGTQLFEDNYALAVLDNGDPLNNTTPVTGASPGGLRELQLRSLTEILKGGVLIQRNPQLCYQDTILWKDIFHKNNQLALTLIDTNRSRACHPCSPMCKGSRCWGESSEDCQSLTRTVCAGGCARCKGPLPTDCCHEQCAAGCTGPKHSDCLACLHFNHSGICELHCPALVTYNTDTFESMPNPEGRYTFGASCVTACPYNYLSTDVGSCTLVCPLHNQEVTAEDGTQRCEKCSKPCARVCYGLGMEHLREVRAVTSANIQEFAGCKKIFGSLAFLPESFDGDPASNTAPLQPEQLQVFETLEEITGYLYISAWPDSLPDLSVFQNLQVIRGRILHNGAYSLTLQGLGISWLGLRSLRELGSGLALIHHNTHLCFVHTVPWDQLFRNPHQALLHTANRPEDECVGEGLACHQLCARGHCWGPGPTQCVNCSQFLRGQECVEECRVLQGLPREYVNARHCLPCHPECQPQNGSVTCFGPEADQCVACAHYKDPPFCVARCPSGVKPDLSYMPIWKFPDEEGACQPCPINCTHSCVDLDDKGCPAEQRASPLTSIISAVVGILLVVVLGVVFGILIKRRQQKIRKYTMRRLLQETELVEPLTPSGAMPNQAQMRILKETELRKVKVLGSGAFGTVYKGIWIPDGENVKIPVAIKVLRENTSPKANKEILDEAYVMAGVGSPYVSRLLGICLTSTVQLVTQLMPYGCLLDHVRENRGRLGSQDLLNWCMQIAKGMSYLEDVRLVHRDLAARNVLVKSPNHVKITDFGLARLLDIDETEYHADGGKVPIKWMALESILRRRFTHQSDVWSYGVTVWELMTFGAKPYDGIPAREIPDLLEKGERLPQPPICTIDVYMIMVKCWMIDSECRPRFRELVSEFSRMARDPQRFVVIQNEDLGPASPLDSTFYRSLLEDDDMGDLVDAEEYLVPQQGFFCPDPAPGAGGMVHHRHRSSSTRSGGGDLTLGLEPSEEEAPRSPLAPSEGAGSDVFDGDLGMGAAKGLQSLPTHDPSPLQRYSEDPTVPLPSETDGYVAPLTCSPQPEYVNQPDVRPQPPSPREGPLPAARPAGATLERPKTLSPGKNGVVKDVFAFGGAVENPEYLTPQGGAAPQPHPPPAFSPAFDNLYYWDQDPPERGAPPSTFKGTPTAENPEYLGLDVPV

[3] = target: T3, Receptor tyrosine-protein kinase erbB-4 (Homo sapiens, UniProt Q15303); test: Inhibition of HER4 (unknown origin) in presence of radiolabelled gammaATP by radioisotope filter binding assay
T3 sequence (Q15303 whole entry): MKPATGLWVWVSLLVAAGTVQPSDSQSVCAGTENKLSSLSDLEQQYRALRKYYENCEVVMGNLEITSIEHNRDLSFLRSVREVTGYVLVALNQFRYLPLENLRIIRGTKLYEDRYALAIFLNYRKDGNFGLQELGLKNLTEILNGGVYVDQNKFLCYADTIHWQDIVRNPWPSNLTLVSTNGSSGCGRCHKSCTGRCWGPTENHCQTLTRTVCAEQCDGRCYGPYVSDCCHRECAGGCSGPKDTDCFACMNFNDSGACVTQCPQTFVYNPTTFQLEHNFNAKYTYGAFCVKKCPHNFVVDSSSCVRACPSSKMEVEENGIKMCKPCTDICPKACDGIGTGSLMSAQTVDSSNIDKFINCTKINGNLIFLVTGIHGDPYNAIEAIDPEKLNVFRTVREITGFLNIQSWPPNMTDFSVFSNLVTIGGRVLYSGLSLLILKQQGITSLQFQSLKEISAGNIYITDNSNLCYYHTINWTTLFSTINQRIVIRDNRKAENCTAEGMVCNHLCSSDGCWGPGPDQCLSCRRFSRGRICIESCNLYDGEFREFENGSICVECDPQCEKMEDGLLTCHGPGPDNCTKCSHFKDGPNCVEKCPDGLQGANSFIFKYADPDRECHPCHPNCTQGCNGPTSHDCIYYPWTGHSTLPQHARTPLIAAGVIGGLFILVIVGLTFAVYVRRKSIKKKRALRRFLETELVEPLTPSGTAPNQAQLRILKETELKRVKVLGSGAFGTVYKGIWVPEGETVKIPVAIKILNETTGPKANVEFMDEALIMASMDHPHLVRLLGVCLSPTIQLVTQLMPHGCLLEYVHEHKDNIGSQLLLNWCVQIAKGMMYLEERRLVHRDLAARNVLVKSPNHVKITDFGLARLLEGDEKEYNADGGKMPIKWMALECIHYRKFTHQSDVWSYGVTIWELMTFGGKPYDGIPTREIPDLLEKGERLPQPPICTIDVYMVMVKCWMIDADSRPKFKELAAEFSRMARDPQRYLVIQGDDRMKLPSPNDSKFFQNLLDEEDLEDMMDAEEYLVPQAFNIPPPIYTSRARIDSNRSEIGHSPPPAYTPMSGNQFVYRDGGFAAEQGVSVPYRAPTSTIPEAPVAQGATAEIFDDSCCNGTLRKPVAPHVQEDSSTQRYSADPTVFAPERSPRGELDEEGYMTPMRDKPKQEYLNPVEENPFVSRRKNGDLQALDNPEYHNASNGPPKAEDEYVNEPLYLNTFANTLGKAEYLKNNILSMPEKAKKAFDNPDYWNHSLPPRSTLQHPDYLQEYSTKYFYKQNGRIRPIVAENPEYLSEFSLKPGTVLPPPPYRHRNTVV

[4] = target: T4, Epidermal growth factor receptor (Homo sapiens, UniProt P00533, L858R); test: Inhibition of EGFR L858R mutant (unknown origin) in presence of radiolabelled gammaATP by radioisotope filter binding assay
[5] = target: Epidermal growth factor receptor (Homo sapiens, UniProt P00533, L858R/T790M); test: Inhibition of EGFR L858R/T790M mutant (unknown origin) in presence of radiolabelled gammaATP by radioisotope filter binding assay
[6] = target: Epidermal growth factor receptor (Homo sapiens, UniProt P00533, EX19DEL); test: Inhibition of EGFR ex19del mutant (unknown origin) in presence of radiolabelled gammaATP by radioisotope filter binding assay
Epidermal growth factor receptor (Homo sapiens, UniProt P00533, EX19DEL), sequence (P00533 whole entry, looked up, stated change not applied, the tested form may be a part): as the sequence (P00533 whole entry) above

[7] = target: T1, Epidermal growth factor receptor; test: Inhibition of recombinant human N-terminal GST-tagged EGFR (669 to 1210 residues) expressed in baculovirus expression system by competitive binding assay
[8] = target: T4, Epidermal growth factor receptor; test: Inhibition of recombinant human N-terminal GST-tagged EGFR L858R mutant (669 to 1210 residues) expressed in baculovirus expression system by competitive binding assay
[9] = target: T4, Epidermal growth factor receptor; test: Inhibition of recombinant human partial length EGFR L858R mutant (669 to 1011 residues) expressed in bacterial expression system by competitive binding assay
[10] = target: Receptor tyrosine-protein kinase erbB-3 (Homo sapiens, UniProt P21860); test: Inhibition of recombinant human wild type partial length HER3 (684 to 987 residues) expressed in mammalian expression system by competitive binding assay
[11] = target: T3, Receptor tyrosine-protein kinase erbB-4; test: Inhibition of recombinant human wild type partial length HER4 (690 to 994 residues) expressed in bacterial expression system by competitive binding assay
CCRF-CEM = test: Cytotoxicity against human CCRF-CEM cells assessed as growth inhibition incubated for 48 hrs by SRB assay; type: functional
K562 = test: Cytotoxicity against human K562 cells assessed as growth inhibition incubated for 48 hrs by SRB assay; type: functional; settings: K562, 48 h
MOLT-4 [12] = test: Cytotoxicity against human MOLT4 cells assessed as growth inhibition incubated for 48 hrs by SRB assay; type: functional; settings: MOLT-4, 48 h
SR = test: Cytotoxicity against human SR cells assessed as growth inhibition incubated for 48 hrs by SRB assay; type: functional
NCI-H460 [13] = test: Cytotoxicity against human NCI-H460 cells assessed as growth inhibition incubated for 48 hrs by SRB assay; type: functional; settings: NCI-H460, 48 h
NCI-H226 = test: Cytotoxicity against human NCI-H226 cells assessed as growth inhibition incubated for 48 hrs by SRB assay; type: functional; settings: NCI-H226, 48 h
MCF7 = test: Cytotoxicity against human MCF7 cells assessed as growth inhibition incubated for 48 hrs by SRB assay; type: functional; settings: MCF7, 48 h
MDA-MB-231 = test: Cytotoxicity against human MDA-MB-231 cells assessed as growth inhibition incubated for 48 hrs by SRB assay; type: functional; settings: MDA-MB-231, 48 h
MDA-MB-468 = test: Cytotoxicity against human MDA-MB-468 cells assessed as growth inhibition incubated for 48 hrs by SRB assay; type: functional; settings: MDA-MB-468, 48 h
Hs-578T = test: Cytotoxicity against human Hs578T cells assessed as growth inhibition incubated for 48 hrs by SRB assay; type: functional
PC-3 = test: Cytotoxicity against human PC3 cells assessed as growth inhibition incubated for 48 hrs by SRB assay; type: functional; settings: PC-3, 48 h
DU-145 = test: Cytotoxicity against human DU145 cells assessed as growth inhibition incubated for 48 hrs by SRB assay; type: functional; settings: DU-145, 48 h
HCT-116 = test: Cytotoxicity against human HCT116 cells assessed as growth inhibition incubated for 48 hrs by SRB assay; type: functional; settings: HCT-116, 48 h
M14 = test: Cytotoxicity against human M14 cells assessed as growth inhibition incubated for 48 hrs by SRB assay; type: functional; settings: M14, 48 h
SK-MEL-28 = test: Cytotoxicity against human SK-MEL-28 cells assessed as growth inhibition incubated for 48 hrs by SRB assay; type: functional; settings: SK-MEL-28, 48 h
SF-268 = test: Cytotoxicity against human SF268 cells assessed as growth inhibition incubated for 48 hrs by SRB assay; type: functional; settings: SF-268, 48 h
MOLT-4 [14] = test: Antitumor activity against human MOLT4 cells loaded in hollow fibers implanted intraperitoneally in NMRI mouse assessed as reduction in cell viability at 10 mg/kg, ip administered for 14 days by celltiter glo assay; type: functional, organism-based
NCI-H460 [15] = test: Antitumor activity against human NCI-H460 cells loaded in hollow fibers implanted intraperitoneally in NMRI mouse assessed as reduction in cell viability at 10 mg/kg, ip administered for 14 days by celltiter glo assay; type: functional, organism-based
[16] = Toxicity in NMRI mouse xenografted with human MOLT4 cells assessed as toxic signs at 10 mg/kg, ip administered for 14 days and observed on day 14; type: organism-based, MOLT-4; settings: in vivo, 336 h
[17] = Toxicity in NMRI mouse xenografted with human MOLT4 cells assessed as weight loss at 10 mg/kg, ip administered for 14 days and observed on day 14; type: organism-based, MOLT-4; settings: in vivo, 336 h
[18] = Toxicity in NMRI mouse xenografted with human NCI-H460 cells assessed as toxic signs at 10 mg/kg, ip administered for 14 days and observed on day 14; type: organism-based; settings: in vivo, 336 h
[19] = Toxicity in NMRI mouse xenografted with human NCI-H460 cells assessed as weight loss at 10 mg/kg, ip administered for 14 days and observed on day 14; type: organism-based; settings: in vivo, 336 h
[20] = Toxicity in NMRI mouse xenografted with human HCT116 cells assessed as toxic signs at 10 mg/kg, ip administered for 14 days and observed on day 14; type: organism-based, HCT-116; settings: in vivo, 336 h
[21] = Toxicity in NMRI mouse xenografted with human HCT116 cells assessed as weight loss at 10 mg/kg, ip administered for 14 days and observed on day 14; type: organism-based, HCT-116; settings: in vivo, 336 h
[22] = target: T2, Receptor tyrosine-protein kinase erbB-2
Description: Inhibition of recombinant human N-terminal His-tagged HER2 (676 to 1255 residues) expressed in baculovirus expression system by competitive binding assay

[23] = target: T3, Receptor tyrosine-protein kinase erbB-4
Description: Inhibition of recombinant human N-terminal GST-tagged HER4 (676 to 1308 residues) expressed in baculovirus expression system by competitive binding assay

`N#Cc1cnc2cc(OC[C@@H](O)CO)c(NC(=O)CC3CSSC3)cc2c1Nc1ccc(OCc2cccc(F)c2)c(Cl)c1` showed an IC50 [1] of 2.4 nM, an IC50 [2] of 121 nM and an IC50 [3] of 0.03 nM. The IC50 [4] was 419 nM, the IC50 [5] was > 10000 nM and the IC50 [6] was 1990 nM. The IC50 [7] was 12.3 nM, the IC50 [8] was 18.1 nM and the Kd [9] was 9.2 nM. It also gave a Kd [10] of 380 nM, a Kd [11] of 6 nM and a GI50 (CCRF-CEM) of 42 nM. For the same compound, the TGI (CCRF-CEM) was 146 nM, the GI50 (K562) was 94 nM and the TGI (K562) was 208 nM. The GI50 (MOLT-4 [12]) was 74 nM, the TGI (MOLT-4 [12]) was 175 nM and the GI50 (SR) was 66 nM. It also gave a TGI (SR) of 246 nM, a GI50 (NCI-H460 [13]) of 103 nM and a TGI (NCI-H460 [13]) of 263 nM. For the same compound, the GI50 (NCI-H226) was 198 nM, the TGI (NCI-H226) was 883 nM and the GI50 (MCF7) was 86 nM. For the same compound, the TGI (MCF7) was 182 nM, the GI50 (MDA-MB-231) was 103 nM and the TGI (MDA-MB-231) was 237 nM. It also gave a GI50 (MDA-MB-468) of 70 nM, a TGI (MDA-MB-468) of 155 nM and a GI50 (Hs-578T) of 105 nM. For the same compound, the TGI (Hs-578T) was 282 nM, the GI50 (PC-3) was 89 nM and the TGI (PC-3) was 204 nM. It also gave a GI50 (DU-145) of 134 nM, a TGI (DU-145) of 424 nM and a GI50 (HCT-116) of 88 nM. For the same compound, the TGI (HCT-116) was 204 nM, the GI50 (M14) was 83 nM and the TGI (M14) was 251 nM. For the same compound, the GI50 (SK-MEL-28) was 63 nM, the TGI (SK-MEL-28) was 136 nM and the GI50 (SF-268) was 83 nM. For the same compound, the TGI (SF-268) was 778 nM, the inhibition (MOLT-4 [14]) was “Active” and the inhibition (NCI-H460 [15]) was “Active”. The Activity [16] was “Non-Toxic”, the Activity [17] was “Non-Toxic” and the Activity [18] was “Non-Toxic”. The Activity [19] was “Non-Toxic”, the Activity [20] was “Non-Toxic” and the Activity [21] was “Non-Toxic”. It also gave an IC50 [22] of 112 nM and an IC50 [23] of 12.2 nM.
Work on `C=CC(=O)Nc1cc2c(Nc3ccc(F)c(Cl)c3)ccnc2cc1OCCC1CC12CCN(C)CC2` (configuration not stated) yielded an IC50 [3] of 1.2 nM.
`N#Cc1cnc2ccc(NC(=O)C3CSSC3)cc2c1Nc1ccc(OCc2cccc(F)c2)c(Cl)c1` gave an IC50 [3] of 284 nM.
`N#Cc1cnc2cc(OC[C@@H](O)CO)c(NC(=O)C3CSSC3)cc2c1Nc1ccc(OCc2cccc(F)c2)c(Cl)c1` gave an IC50 [1] of 1.5 nM, an IC50 [3] of 0.45 nM and an IC50 [4] of 51 nM. The IC50 [5] was > 10000 nM and the IC50 [6] was 204 nM.
With `N#Cc1cnc2cc(OC[C@H](O)CO)c(NC(=O)CC3CSSC3)cc2c1Nc1ccc(OCc2cccc(F)c2)c(Cl)c1` the IC50 [1] was 2 nM, the IC50 [2] was 104 nM and the IC50 [3] was 0.19 nM. For the same compound, the IC50 [4] was 387 nM, the IC50 [6] was 1280 nM and the GI50 (CCRF-CEM) was 112 nM. The TGI (CCRF-CEM) was 283 nM, the GI50 (K562) was 148 nM and the TGI (K562) was 454 nM. The GI50 (MOLT-4 [12]) was 93 nM, the TGI (MOLT-4 [12]) was 209 nM and the GI50 (SR) was 132 nM. It also gave a TGI (SR) of 608 nM, a GI50 (NCI-H460 [13]) of 128 nM and a TGI (NCI-H460 [13]) of 312 nM. It also gave a GI50 (NCI-H226) of 690 nM, a TGI (NCI-H226) of 1830 nM and a GI50 (MCF7) of 91 nM. It also gave a TGI (MCF7) of 193 nM, a GI50 (MDA-MB-231) of 208 nM and a TGI (MDA-MB-231) of 722 nM. It also gave a GI50 (MDA-MB-468) of 120 nM, a TGI (MDA-MB-468) of 385 nM and a GI50 (Hs-578T) of 512 nM. It also gave a TGI (Hs-578T) of 1740 nM, a GI50 (PC-3) of 174 nM and a TGI (PC-3) of 455 nM. The GI50 (DU-145) was 637 nM, the TGI (DU-145) was 1360 nM and the GI50 (HCT-116) was 98 nM. The TGI (HCT-116) was 209 nM, the GI50 (M14) was 141 nM and the TGI (M14) was 482 nM. The GI50 (SK-MEL-28) was 129 nM, the TGI (SK-MEL-28) was 350 nM and the GI50 (SF-268) was 404 nM. For the same compound, the TGI (SF-268) was 1320 nM.
